In assay [1] the test system is TGF-β. Briefly: Effects on the extracellular matrix (proteoglycan) production by TGF-β in NRK-49F fibroblasts. Format: cell-based. Particulars: Rattus norvegicus, NRK-49F cells, 3 ng/ml TGF-β, [35S]-proteoglycan radioactivity, 24 hours, read-out: TGF-β inhibitory rate (%); for inhibition at 3 µM: test compound 3 μM; for inhibition at 10 µM: test compound 10 μM. On the procedure: Effects on the Extracellular Matrix Production by TGF-β
The effect of the compounds of Examples on the production of proteoglycan when TGF-β was added to fibroblast was evaluated.
NRK-49F cells (rat fibroblast) were cultured in Dulbecco's Modified Eagle Medium (DMEM: manufactured by GIBCO) containing 10% bovine serum, and used in this experiment. The cells were put into a 96-well plate in an amount of 2.5×10^4 cells/100 μl/well. On the next day, the medium in the plate was exchanged to the DMEM medium containing 3 ng/ml of TGF-β (manufactured by Nacalai Tesque, Inc.), 0.5 μCi/well of [^35S]-Na2SO4, and a test compound. Twenty-four hours thereafter, the supernatant was collected, and subjected to SDS-polyacrylamide gel electrophoresis (SDS-PAGE) in a conventional manner. The gel after electrophoresis was dried with a gel drier, and exposed to an imaging plate, which was analyzed with BSA2000 (manufactured by Fuji Photo Film). The radioactivity of proteoglycan to be electrophoresed was measured, and the TGF-β inhibitory rate was calculated by the following equation. TGF-β Inhibitory rate (%)=(A−B)×100/(A−C) • A: Radioactivity in the presence of TGF-β without a test compound • B: Radioactivity in the presence of TGF-β and a test compound • C: Radioactivity in the absence of TGF-β and a test compound

Assay [2] concerns rat Thy-1 nephritis model. The experiment in a line: Evaluation using rat Thy-1 nephritis model (kidney fibrosis). Format: in vivo. The settings on record: 7 days. On the procedure:
The anti-fibrosis activity was evaluated on the compounds of Examples 9, 14, 110, 120 and 136 by using a rat Thy-1 nephritis model, which is an animal model for kidney fibrosis (cf., “Kidney and Dialysis”, vol. 31, p. 343-347 (1991)). Thy-1 is one of the surface antigens of thymocyte.
Male Wister rats were purchased from Charles River Japan, Inc. at an age of 3-weeks old. After pre-feeding, the animals were used in this experiment when their body weights became about 100 g. The animals were kept in a room being controlled at a temperature of 24±2° C. under a humidity of 55±10%, with an illumination cycle of light on (8:00 to 20:00). The animals were given solid diet pellets (CRF-1, Oriental Yeast Co. Ltd.) and sterilized tap water ad libitum.
Anti-Thy-1 monoclonal antibody (OX-7, Biosource International Inc.) was administered to the rats at a dose of 50 μg/100 g of body weight at the tail vein. Then, the animals were grouped into the vehicle-treated group (n=8) and the test compound-treated group (n=8) with respect to the body weight. From the day of administration of anti-Thy-1 monoclonal antibody, a test compound, which was suspended in a 0.5% carboxymethylcellulose (vehicle), […] To the vehicle-treated group, a vehicle was administered likewise.
After the administration for 7 days, the right kidney of the rats was taken out, and the content of hydroxyproline therein, which was an index for organ fibrosis, was measured according to the method of J. F. Woessner, et al. (Arch. Biochem. Biophys. Vol. 93 p440 (1961)). That is, the kidney was homogenized, and 500 μL of the suspension was dried, and thereto was added a 4N aqueous sodium hydroxide solution (225 μL). The mixture was heated on a heat block at 100° C. for 15 minutes to hydrolyze proteins, and the mixture was neutralized with a 1.4 M aqueous citric acid solution (275 μL). The mixture was centrifuged at 3000 rpm for 10 minutes at room temperature, and the supernatant was collected as a kidney extract. To the extract were added Chloramine T solution and an Ehrlich solution (which was prepared by adding n-propanol (31 ml) to p-dimethylaminobenzaldehyde (7.5 g), and further slowly adding thereto a 60% perchloric acid (13 mL), and followed by adjusting the volume to 50 ml by distilled water), and the mixture was reacted at 65° C. for 15 minutes. The OD 550 (absorbance at 550 nm) was measured, and the concentration of hydroxyproline was calculated from the analytical curve of hydroxyproline. The content of hydroxyproline thus obtained was adjusted with respect to the protein amount in the kidney extract.
Each value was expressed in average value±standard deviation of 8 animals in each group.

Turning to `Cc1ccc(C(=O)c2cccn2Cc2cnc3ccccc3c2)c(O)c1` [Example 85], in assay [1], the inhibition at 3 µM came to 29% and the inhibition at 10 µM was found to be 75%.
The matching figures for `Cc1ccc(C(=O)c2cccn2Cc2cnc3cc(Cl)ccc3c2)cc1` [Example 33]: 74% and 91%.
For the compound `Cc1ccc(C(=O)c2cc(C)cn2Cc2cnc3ccccc3c2)cc1` [Example 107], in assay [1], the inhibition at 3 µM came out at 90% and the inhibition at 10 µM worked out at 95%.
With `Cc1ccc(C(=O)c2cccn2C/C=C/c2ccccc2C(=O)O)cc1` [Example 19], in assay [1], the inhibition at 3 µM amounted to 51% and the inhibition at 10 µM came out at 72%.
Taken in the same sequence, the figures for `O=C(c1ccc(OCCN2CCOCC2)cc1)c1cccn1Cc1cnc2ccccc2c1` [Example 97] were 58% and 75%.
Regarding `COC(=O)c1cc(Cl)ccc1/C=C/Cn1cc(C)cc1C(=O)c1ccc(O)cc1` [Example 111], in assay [1], the inhibition at 3 µM came out at 90% and the inhibition at 10 µM was determined as 118%.
The matching figures for `COC(=O)c1cc(Cl)ccc1/C=C/Cn1cccc1C(=O)c1ccc(O)cc1` [Example 103]: 55% and 90%.
Turning to `COc1ccc(C(=O)c2cccn2Cc2cnc3ccccc3n2)cc1` [Example 91], in assay [1], the inhibition at 3 µM is 66% and the inhibition at 10 µM came to 73%.
Taken in the same sequence, the figures for `Cc1ccc(C(=O)c2cccn2Cc2cnc3c(/C=C/C(=O)N(C)C)cccc3c2)cc1` [Example 61] were 15% and 86%.
The matching figures for `Cc1ccc(C(=O)c2cccn2C/C=C/c2ccc(Cl)cc2C(=O)NS(C)(=O)=O)cc1` [Example 115]: 46% and 56%.
The matching figures for `Cc1ccc(C(=O)c2cccn2Cc2cnc3cc(C#N)ccc3n2)cc1` [Example 67]: 55% and 75%.
On to `O=C(c1ccc(O)cc1)c1cccn1Cc1cnc2ccccc2c1` [Example 14], for which, in assay [1], the inhibition at 3 µM is 40% and the inhibition at 10 µM turned out to be 56%. The Hydroxyproline content in assay [2] (150 mg/kg oral once a day, right kidney, Table 2: normal rat 6.7 ± 1.6, vehicle 8.7 ± 2.0, P < 0.05 vs vehicle) was determined as 6.3 ± 1.3 μg/mg protein.
`Cc1ccc(C(=O)c2c(C)ccn2Cc2cnc3ccccc3c2)cc1` [Example 108]: in assay [1], the inhibition at 3 µM stood at 42% and the inhibition at 10 µM stood at 56%.
The matching figures for `Cc1ccc(Cc2cccn2Cc2ccc3ccccc3n2)cc1` [Example 5]: 6% and 51%.
Consider `Cc1ccc(C(=O)c2cccn2Cc2ccnc3ccccc23)cc1` [Example 3], for which, in assay [1], the inhibition at 3 µM was 25% and the inhibition at 10 µM turned out to be 38%.
The matching figures for `Cc1ccc(C(=O)c2cc(C=O)cn2C/C=C/c2ccc(Cl)cc2C(=O)O)cc1` [Example 112]: 23% and 73%.
The matching figures for `Cc1ccc(C(=O)c2cccn2Cc2cnc3ncccc3n2)cc1` [Example 73]: 70% and 85%.
Taken in the same sequence, the figures for `Cc1ccc(C(=O)c2cccn2Cc2cnc3cccc(C(=O)O)c3c2)cc1` [Example 43] were 31% and 66%.
As to `Cc1ccc(C(=O)c2cccn2Cc2cnc3ccccc3n2)cc1` [Example 64], in assay [1], the inhibition at 3 µM amounted to 43% and the inhibition at 10 µM was found to be 75%.
The matching figures for `Cc1ccc(Cn2cccc2Cc2cnc3ccccc3c2)cc1` [Example 7, 1-(4-methylbenzyl)-2-(3-quinolylmethyl)-1H-pyrrole]: 44% and 78%.
For the compound `CNC(=O)c1cc(Cl)ccc1/C=C/Cn1cccc1C(=O)c1ccc(C)cc1` [Example 117], in assay [1], the inhibition at 3 µM was 71% and the inhibition at 10 µM is 83%.
Taken in the same sequence, the figures for `Cc1ccc(C(=O)c2cccn2Cc2cnc3cccc(C(N)=O)c3c2)cc1` [Example 31] were 34% and 38%.
The matching figures for `Cc1ccc(C(=O)c2cccn2Cc2cnc3c(C#N)cccc3n2)cc1` [Example 66]: 88% and 94%.
Taken in the same sequence, the figures for `C=CCOc1ccc(C(=O)c2cccn2Cc2cnc3ccccc3c2)cc1` [Example 10] were 63% and 86%.
For `COc1ccc(C(=O)c2cc(C)cn2C/C=C/c2ccc(Cl)cc2C(=O)O)cc1` [Example 110], the Hydroxyproline content in assay [2] (1.5 mg/kg oral, kidney, Table 3: normal rat 8.2 ± 0.8, vehicle 11.8 ± 0.6, P < 0.01 vs vehicle) was 10.1 ± 0.8 μg/mg protein; in assay [2] (5 mg/kg oral, kidney, Table 3: normal rat 8.2 ± 0.8, vehicle 11.8 ± 0.6, P < 0.01 vs vehicle), 9.5 ± 0.8 μg/mg protein; in assay [2] (15 mg/kg oral, kidney, Table 3: normal rat 8.2 ± 0.8, vehicle 11.8 ± 0.6, P < 0.01 vs vehicle) it was 9.7 ± 0.7 μg/mg protein; in assay [2] (50 mg/kg oral, kidney, Table 3: normal rat 8.2 ± 0.8, vehicle 11.8 ± 0.6, P < 0.01 vs vehicle), 9.5 ± 0.6 μg/mg protein.
In the case of `Cc1ccc(Cc2cccn2Cc2cnc3ccccc3c2Cl)cc1` [Example 25], in assay [1], the inhibition at 3 µM stood at 6% and the inhibition at 10 µM was 74%.
Taken in the same sequence, the figures for `Cc1ccc(C(O)c2cccn2Cc2cnc3ccccc3c2)cc1` (centres unmarked) [Example 20, [1-(3-quinolylmethyl)-1H-pyrrol-2-yl](4-methylphenyl)methanol] were 61% and 90%.
The matching figures for `Cc1ccc(C(=O)c2cccn2Cc2cnc3ccccc3c2)cc1` [Example 2]: 33% and 61%.
Taken in the same sequence, the figures for `Cc1ccc(C(=O)c2cccn2Cc2cnc3c(C#N)cccc3c2)cc1` [Example 38] were 51% and 40%.
`Cc1ccc(S(=O)(=O)n2cccc2C(O)c2cnc3ccccc3c2)cc1` (centres unmarked) [Example 6, (1-p-toluenesulfonyl-1H-pyrrol-2-yl)(3-quinolyl)methanol]: in assay [1], the inhibition at 3 µM was 66% and the inhibition at 10 µM stood at 88%.
The matching figures for `Cc1ccc(C(=O)c2cccn2Cc2cnc3cccnc3n2)cc1` [Example 8]: 16% and 46%.
The matching figures for `Cc1ccc(C(=O)c2cccn2Cc2cnc3ccccc3c2)cc1OCC(O)CO` (centres unmarked) [Example 83]: 42% and 47%.
Taken in the same sequence, the figures for `CN(C)C(=O)c1ccc(C(=O)c2cccn2Cc2cnc3ccccc3c2)cc1` [Example 76] were 56% and 58%.
Take `Cc1ccc(C(=O)c2cccn2C/C=C/c2ccc(Cl)cc2C(=O)O)cc1` [Example 9]: in assay [1], the inhibition at 3 µM is 88% and the inhibition at 10 µM is 91%. The Hydroxyproline content in assay [2] (15 mg/kg oral once a day, right kidney, Table 2: normal rat 6.7 ± 1.6, vehicle 8.7 ± 2.0, mean ± SD, n=8) turned out to be 7.2 ± 2.1 μg/mg protein.
In the case of `Cc1ccc(C(=O)c2cccn2Cc2cnc3nccnc3c2)cc1` [Example 105], in assay [1], the inhibition at 3 µM amounted to 14% and the inhibition at 10 µM amounted to 48%.

The record behind these values is patent US20050227978A1, “Fibrosis inhibitor” (Sumitomo Pharmaceuticals Co., Ltd., priority 2002, published 2005).
